Laboratory results taken from ChEMBL document CHEMBL2440033, “Synthesis of amino-hydroxy-benzocycloheptenones as potent, selective, non-peptidic dinuclear zinc metalloaminopeptidase inhibitors” (Bioorg Med Chem, 2013).

Experiments:
[1] = target: Bacterial leucyl aminopeptidase (Vibrio proteolyticus, UniProt Q01693); experiment: Inhibition of Aeromonas proteolytica leucyl aminopeptidase using L-leucine para-notroanilide as substrate assessed as release of para-nitroaniline by Dixon plot analysis
Bacterial leucyl aminopeptidase, sequence (Q01693 whole entry): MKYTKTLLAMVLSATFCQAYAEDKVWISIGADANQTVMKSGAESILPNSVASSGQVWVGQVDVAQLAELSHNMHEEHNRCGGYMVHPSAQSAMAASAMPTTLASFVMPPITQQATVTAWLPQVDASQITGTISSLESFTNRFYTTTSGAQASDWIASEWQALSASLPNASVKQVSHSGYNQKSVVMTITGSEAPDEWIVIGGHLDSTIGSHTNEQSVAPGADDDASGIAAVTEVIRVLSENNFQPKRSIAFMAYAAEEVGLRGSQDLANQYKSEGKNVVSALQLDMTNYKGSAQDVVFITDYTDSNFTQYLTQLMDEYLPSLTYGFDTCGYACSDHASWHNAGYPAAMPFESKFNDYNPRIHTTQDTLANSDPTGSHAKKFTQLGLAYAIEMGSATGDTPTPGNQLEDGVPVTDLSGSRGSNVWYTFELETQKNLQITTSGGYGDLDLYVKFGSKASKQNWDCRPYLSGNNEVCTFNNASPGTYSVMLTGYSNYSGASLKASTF

Aminopeptidase N = target: T1, Aminopeptidase N (Sus scrofa, UniProt P15145); experiment: Inhibition of porcine kidney APN using L-leucine para-notroanilide as substrate assessed as release of para-nitroaniline by Dixon plot analysis
T1 sequence (P15145 whole entry): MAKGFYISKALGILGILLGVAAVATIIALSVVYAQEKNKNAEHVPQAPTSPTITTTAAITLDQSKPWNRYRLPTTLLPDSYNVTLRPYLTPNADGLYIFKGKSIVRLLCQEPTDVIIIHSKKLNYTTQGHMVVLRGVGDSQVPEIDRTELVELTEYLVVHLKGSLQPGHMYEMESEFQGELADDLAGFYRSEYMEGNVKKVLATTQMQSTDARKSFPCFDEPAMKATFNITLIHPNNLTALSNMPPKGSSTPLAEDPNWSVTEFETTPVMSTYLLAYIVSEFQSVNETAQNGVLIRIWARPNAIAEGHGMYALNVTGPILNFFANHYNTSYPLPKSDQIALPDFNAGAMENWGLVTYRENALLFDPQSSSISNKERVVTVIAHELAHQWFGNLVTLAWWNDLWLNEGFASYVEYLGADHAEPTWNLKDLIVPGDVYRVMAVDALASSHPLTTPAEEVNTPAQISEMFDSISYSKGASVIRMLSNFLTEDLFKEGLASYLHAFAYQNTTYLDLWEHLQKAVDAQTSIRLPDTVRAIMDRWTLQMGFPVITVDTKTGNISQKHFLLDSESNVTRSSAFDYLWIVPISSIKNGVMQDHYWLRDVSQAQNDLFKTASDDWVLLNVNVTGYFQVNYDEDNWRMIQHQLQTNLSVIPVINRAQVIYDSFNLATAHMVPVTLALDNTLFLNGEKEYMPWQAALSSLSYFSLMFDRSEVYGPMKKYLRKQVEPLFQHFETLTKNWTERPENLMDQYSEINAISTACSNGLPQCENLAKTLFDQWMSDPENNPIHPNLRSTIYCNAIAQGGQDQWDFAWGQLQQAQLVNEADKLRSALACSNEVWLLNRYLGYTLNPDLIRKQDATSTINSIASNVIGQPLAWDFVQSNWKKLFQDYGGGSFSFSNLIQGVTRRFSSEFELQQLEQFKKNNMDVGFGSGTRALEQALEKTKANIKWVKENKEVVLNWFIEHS

Row | SMILES | IC50 [1] [µM] | Ki [1] [µM] | IC50 (Aminopeptidase N) [µM] | Ki (Aminopeptidase N) [µM]
1 | NC1CCc2ccccc2CC1=O (stereo unspecified) | 900 |  |  | 
2 | N[C@@H]1C(=O)Cc2ccccc2C[C@@H]1O (racemic) | > 1000 |  | > 1000 | 
3 | N[C@H]1Cc2ccccc2C[C@@H](O)C1=O (racemic) |  | 4 | > 100 | 
4 | N[C@H]1Cc2ccccc2CC(=O)[C@H]1O (racemic) |  | 0.01 | > 1000 | 

Now from value to compound:

Row | IC50 [1] [µM] | Ki [1] [µM] | IC50 (Aminopeptidase N) [µM] | Ki (Aminopeptidase N) [µM] | SMILES
5 |  | 78 | > 1000 |  | N[C@@H]1[C@H](O)Cc2ccccc2C[C@@H]1O
6 |  | 24 |  | 42 | N[C@H]1Cc2ccccc2C[C@H](O)C1=O (racemic)
